Laboratory results reported in patent US10669239B2, “Tetrahydronaphthyl urea derivative” (MOCHIDA PHARMACEUTICAL CO., LTD., priority 2017, dated 2020).

Molecular target: human TrkA protein (Homo sapiens (Human), UniProt P04629)
Assay: TrkA LanthaScreen Eu Kinase Binding Assay (binding activity for human TrkA protein)
Conditions: TrkA enzyme, Kinase Tracer 236, TR-FRET, 60 minutes at room temperature
Method: (Pharmacological Experimental Example 1): Evaluation of Binding Activity for Human TrkA Protein
Measurement was carried out using TrkA LanthaScreen (registered trademark) Eu Kinase Binding Assay (ThermoFisher SCIENTIFIC). To a 384 well plate (Corning), 2.5 μL of the test compound having various concentrations and diluted with Kinase buffer (ThermoFisher SCIENTIFIC) and 2.5 μL of 15 nM TrkA enzyme (ThermoFisher SCIENTIFIC) were added. Moreover, 5 μL of 3 nM Eu-anti-His Tag antibody (ThermoFisher SCIENTIFIC) and 5 μL of 30 nM Kinase (registered trademark) Tracer 236 (ThermoFisher SCIENTIFIC) were added, followed by reaction at room temperature for 60 minutes. After the reaction, the fluorescence intensity of Europium (Emission wavelength 615 nm) and TR-FRET (Emission wavelength 665 nm) with an excitation wavelength of 340 nm were measured with EnVision 2100 (PerkinElmer) to calculate the fluorescence ratio as the amount of the test compound and the TrkA enzyme bonded. The inhibitory activity (IC50 value) of each test compound was calculated with the fluorescence ratio of the well to which a solvent was added instead of the test compound being 0% and the fluorescence ratio of the well without addition of the TrkA protein being 100%.
In Table 1, Compounds 1 to 62 respectively mean Compounds 1 to 62 synthesized in accordance with Examples 1 to 62 described later.

Chain of human TrkA protein (P04629 33-796): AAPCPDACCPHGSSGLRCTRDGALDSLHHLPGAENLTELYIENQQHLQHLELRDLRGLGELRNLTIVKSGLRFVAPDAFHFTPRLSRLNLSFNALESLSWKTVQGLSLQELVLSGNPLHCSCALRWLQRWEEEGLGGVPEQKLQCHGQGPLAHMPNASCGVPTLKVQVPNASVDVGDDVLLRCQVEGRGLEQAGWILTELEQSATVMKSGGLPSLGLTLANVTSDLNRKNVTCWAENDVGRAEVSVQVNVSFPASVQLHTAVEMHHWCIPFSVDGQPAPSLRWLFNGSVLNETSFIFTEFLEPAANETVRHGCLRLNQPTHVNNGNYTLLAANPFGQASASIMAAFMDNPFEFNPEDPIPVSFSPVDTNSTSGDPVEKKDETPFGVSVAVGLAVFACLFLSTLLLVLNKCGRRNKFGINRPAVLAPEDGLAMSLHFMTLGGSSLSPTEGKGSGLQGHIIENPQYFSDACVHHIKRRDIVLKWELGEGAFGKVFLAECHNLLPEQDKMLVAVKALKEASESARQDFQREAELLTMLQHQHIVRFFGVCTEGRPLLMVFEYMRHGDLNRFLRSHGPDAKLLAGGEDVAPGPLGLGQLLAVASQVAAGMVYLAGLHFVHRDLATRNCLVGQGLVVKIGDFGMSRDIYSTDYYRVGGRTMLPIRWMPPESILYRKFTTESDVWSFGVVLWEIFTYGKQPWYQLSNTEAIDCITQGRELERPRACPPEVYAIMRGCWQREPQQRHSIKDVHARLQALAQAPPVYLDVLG

`Cc1cc(NC(=O)N[C@@H]2c3cc(F)c(F)cc3C(C)(C)C[C@H]2O)c(-c2ccccc2)nc1-c1ccnc(CO)c1` (racemic) [Compound 56, rac-1-((1R,2R)-6,7-difluoro-2-hydroxy-4,4-dimethyl-1,2,3,4-tetrahydronaphthalen-1-yl)-3-(2′-(hydroxymethyl)-3-methyl-6-phenyl-[2,4′-bipyridin]-5-yl)urea] was tested, and the IC50 was ≤ 50 nM.
